{"source": "ChEMBL document CHEMBL5653615", "about": "(J Biol Chem, 2013)", "key": {"[1]": {"target": "Insulin receptor-related protein (Homo sapiens) (UniProt P14616)", "sequence (P14616 27-742 limits assumed)": "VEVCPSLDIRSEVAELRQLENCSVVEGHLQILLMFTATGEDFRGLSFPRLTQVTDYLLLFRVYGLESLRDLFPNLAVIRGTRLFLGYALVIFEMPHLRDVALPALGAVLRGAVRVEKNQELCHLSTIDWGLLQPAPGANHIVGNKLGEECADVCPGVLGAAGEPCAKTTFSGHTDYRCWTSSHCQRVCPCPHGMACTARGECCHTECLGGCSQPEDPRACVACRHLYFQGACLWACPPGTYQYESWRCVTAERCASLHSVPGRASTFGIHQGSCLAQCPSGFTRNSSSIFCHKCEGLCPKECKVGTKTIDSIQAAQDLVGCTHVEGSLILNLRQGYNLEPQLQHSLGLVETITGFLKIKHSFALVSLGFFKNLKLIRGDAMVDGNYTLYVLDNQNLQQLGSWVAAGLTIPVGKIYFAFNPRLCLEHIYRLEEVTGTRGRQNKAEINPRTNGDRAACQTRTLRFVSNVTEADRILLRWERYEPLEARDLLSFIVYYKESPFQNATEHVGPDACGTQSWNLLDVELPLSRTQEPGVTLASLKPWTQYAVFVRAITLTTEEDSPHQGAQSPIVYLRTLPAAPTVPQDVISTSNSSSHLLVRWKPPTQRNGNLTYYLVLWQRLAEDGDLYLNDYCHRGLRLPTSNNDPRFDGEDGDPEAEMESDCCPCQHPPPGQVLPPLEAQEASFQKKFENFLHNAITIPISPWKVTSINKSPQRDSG", "sequence (P14616 747-1297 limits assumed)": "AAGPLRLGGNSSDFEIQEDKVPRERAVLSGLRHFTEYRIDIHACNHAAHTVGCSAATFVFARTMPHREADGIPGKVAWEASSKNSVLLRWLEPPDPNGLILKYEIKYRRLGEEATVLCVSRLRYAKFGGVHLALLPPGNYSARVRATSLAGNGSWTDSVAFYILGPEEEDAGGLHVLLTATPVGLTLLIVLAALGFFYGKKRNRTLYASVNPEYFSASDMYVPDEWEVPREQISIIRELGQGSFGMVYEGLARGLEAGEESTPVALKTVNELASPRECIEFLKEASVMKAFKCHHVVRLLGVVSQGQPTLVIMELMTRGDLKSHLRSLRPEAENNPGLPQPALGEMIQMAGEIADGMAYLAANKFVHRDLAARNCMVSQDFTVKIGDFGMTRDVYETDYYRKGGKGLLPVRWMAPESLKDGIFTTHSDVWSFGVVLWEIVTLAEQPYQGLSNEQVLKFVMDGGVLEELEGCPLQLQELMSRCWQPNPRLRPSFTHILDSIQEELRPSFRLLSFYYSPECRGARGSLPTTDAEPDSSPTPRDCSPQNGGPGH", "experiment": "Inhibition of human IRR at 18.6 nM by HotSpot assay relative to control"}, "[2]": {"target": "Mitogen-activated protein kinase kinase kinase kinase 4 (Homo sapiens) (UniProt O95819)", "sequence (O95819 2-1239 limits assumed)": "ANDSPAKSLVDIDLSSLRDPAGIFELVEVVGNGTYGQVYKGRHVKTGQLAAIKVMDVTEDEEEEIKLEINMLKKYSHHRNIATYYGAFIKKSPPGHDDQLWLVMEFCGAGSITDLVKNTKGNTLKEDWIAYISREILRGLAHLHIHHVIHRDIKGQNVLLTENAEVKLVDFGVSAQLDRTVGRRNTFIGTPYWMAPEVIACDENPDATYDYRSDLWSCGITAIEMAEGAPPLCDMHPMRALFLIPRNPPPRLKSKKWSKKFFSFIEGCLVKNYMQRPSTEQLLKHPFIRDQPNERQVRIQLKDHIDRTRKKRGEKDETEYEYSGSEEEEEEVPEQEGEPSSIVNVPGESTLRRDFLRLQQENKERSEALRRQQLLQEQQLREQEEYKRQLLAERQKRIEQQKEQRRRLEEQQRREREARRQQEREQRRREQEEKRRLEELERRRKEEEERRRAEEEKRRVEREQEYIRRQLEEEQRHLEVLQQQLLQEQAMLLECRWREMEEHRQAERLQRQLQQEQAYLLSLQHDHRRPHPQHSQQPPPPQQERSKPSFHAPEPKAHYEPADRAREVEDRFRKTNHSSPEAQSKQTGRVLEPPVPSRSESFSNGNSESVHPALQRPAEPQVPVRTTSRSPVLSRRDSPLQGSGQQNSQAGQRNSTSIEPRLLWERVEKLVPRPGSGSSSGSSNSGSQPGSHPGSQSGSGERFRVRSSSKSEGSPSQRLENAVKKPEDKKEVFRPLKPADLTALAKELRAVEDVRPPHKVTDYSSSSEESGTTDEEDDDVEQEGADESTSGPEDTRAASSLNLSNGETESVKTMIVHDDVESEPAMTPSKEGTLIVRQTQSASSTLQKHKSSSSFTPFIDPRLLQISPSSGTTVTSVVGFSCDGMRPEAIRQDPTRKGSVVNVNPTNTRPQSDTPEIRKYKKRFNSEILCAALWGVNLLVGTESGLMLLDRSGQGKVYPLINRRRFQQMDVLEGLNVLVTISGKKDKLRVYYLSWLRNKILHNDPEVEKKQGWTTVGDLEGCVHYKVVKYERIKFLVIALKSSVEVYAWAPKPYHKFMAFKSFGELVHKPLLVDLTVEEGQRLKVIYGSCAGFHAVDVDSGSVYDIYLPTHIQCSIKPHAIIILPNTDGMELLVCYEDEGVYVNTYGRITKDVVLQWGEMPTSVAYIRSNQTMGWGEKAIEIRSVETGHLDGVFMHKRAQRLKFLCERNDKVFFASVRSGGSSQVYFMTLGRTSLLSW", "experiment": "Inhibition of human HGK at 18.6 nM by HotSpot assay relative to control"}, "[3]": {"target": "T1, Dual specificity tyrosine-phosphorylation-regulated kinase 4 (Homo sapiens) (UniProt Q9NR20)", "T1 sequence (whole entry)": "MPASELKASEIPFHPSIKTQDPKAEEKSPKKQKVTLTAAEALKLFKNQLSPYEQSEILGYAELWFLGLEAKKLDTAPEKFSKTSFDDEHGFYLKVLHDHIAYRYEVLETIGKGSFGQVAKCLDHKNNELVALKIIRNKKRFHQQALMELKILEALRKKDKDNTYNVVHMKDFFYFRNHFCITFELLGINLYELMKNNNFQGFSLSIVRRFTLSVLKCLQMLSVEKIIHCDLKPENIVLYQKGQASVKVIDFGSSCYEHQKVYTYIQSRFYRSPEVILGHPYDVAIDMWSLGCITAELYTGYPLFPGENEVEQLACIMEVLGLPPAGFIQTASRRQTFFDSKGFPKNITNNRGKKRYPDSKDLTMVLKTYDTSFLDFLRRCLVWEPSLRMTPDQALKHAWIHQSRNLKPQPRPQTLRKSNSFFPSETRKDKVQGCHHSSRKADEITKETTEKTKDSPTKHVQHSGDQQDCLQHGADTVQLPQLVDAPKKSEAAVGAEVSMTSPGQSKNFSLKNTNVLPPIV", "experiment": "Inhibition of human DYRK4 at 18.6 nM by HotSpot assay relative to control"}, "[4]": {"target": "Non-receptor tyrosine-protein kinase TYK2 (Homo sapiens) (UniProt P29597)", "experiment": "Inhibition of human TYK2 at 18.6 nM by HotSpot assay relative to control"}, "[5]": {"target": "CDK6/cyclin D1 (Homo sapiens) (UniProt P24385+Q00534)", "experiment": "Inhibition of human CDK6/cyclin D1 at 18.6 nM by HotSpot assay relative to control", "format": "protein-complex assay"}, "[6]": {"target": "T2, Serine/threonine-protein kinase NLK (Homo sapiens) (UniProt Q9UBE8)", "T2 sequence (whole entry)": "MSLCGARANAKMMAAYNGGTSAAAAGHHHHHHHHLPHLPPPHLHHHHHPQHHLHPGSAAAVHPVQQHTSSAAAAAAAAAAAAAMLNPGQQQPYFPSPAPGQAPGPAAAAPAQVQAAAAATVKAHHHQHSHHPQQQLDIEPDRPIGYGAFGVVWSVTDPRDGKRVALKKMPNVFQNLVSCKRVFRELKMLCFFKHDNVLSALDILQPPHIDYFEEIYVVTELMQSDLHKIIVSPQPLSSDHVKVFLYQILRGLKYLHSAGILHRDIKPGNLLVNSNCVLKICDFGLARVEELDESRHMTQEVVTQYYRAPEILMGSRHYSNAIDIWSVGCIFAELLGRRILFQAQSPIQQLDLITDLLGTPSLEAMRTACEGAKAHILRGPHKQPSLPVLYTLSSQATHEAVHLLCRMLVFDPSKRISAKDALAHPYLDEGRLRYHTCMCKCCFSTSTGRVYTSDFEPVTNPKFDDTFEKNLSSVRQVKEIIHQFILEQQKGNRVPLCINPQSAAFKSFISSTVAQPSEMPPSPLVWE", "experiment": "Inhibition of human NLK at 18.6 nM by HotSpot assay relative to control"}, "[7]": {"target": "Serine/threonine-protein kinase pim-2 (Homo sapiens) (UniProt Q9P1W9)", "sequence (Q9P1W9 whole entry, looked up)": "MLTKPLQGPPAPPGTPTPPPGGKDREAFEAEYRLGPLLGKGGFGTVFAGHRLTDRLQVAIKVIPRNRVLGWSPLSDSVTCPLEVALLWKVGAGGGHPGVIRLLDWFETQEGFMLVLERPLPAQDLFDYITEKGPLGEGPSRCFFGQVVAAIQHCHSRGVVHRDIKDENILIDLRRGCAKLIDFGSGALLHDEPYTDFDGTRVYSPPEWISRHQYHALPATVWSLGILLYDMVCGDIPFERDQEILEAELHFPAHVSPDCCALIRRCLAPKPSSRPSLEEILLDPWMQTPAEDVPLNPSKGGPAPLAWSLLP", "experiment": "Inhibition of human PIM2 at 500 nM by HotSpot assay relative to control"}, "[8]": {"target": "Mitogen-activated protein kinase kinase kinase 20 (Homo sapiens) (UniProt Q9NYL2)", "sequence (Q9NYL2 2-800 limits assumed)": "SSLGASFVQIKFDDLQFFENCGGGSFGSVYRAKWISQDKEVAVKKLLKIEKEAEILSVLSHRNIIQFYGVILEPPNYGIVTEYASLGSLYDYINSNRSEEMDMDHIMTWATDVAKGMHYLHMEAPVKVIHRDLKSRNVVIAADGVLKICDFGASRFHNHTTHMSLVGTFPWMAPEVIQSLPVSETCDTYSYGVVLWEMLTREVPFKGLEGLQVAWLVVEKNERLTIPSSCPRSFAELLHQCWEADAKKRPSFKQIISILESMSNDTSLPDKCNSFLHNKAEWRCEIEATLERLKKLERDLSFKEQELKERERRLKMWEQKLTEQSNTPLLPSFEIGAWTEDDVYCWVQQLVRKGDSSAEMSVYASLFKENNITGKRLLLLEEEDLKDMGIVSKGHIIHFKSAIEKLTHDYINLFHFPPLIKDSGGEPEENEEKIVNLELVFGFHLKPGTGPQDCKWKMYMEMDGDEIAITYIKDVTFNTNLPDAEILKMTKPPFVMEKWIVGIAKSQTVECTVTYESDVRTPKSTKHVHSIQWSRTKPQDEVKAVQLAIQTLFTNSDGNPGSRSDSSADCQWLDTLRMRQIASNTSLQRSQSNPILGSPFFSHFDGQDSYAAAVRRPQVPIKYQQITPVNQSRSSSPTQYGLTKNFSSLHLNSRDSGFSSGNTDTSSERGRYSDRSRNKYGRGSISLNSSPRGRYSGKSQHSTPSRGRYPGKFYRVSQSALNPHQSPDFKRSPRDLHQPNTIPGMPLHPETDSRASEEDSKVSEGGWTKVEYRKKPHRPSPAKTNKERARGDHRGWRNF", "experiment": "Inhibition of human MLTK at 1.82 nM by HotSpot assay relative to control"}, "[9]": {"target": "Activated CDC42 kinase 1 (Homo sapiens) (UniProt Q07912)", "sequence (Q07912 whole entry, looked up)": "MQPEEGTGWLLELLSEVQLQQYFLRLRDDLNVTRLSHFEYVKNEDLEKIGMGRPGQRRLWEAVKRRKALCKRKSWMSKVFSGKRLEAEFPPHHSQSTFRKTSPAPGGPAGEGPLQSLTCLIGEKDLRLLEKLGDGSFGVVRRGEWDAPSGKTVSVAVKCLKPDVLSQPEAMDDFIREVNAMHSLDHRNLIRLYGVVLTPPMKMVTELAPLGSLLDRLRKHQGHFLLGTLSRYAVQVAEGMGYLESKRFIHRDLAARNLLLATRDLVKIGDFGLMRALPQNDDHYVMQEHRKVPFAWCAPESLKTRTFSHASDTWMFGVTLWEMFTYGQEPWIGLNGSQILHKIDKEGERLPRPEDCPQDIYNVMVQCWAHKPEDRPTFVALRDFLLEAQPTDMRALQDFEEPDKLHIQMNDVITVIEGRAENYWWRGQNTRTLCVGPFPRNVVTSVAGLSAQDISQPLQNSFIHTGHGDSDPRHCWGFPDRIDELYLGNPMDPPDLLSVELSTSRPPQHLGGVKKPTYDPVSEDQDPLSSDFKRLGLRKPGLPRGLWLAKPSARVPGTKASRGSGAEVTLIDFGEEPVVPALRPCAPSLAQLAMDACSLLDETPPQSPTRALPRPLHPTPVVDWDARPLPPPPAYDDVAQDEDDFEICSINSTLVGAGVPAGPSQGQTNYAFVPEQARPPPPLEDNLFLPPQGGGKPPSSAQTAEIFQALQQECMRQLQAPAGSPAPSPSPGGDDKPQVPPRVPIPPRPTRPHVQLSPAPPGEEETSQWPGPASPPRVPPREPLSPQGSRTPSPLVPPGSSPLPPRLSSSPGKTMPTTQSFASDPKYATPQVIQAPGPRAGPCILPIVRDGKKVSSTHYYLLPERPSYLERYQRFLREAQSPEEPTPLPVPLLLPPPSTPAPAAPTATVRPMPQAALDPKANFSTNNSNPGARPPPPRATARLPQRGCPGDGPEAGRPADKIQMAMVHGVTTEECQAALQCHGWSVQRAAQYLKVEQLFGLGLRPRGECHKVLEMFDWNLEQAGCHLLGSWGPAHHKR", "experiment": "Inhibition of human ACK1 at 1.82 nM by HotSpot assay relative to control"}, "[10]": {"target": "Myosin light chain kinase, smooth muscle (Homo sapiens) (UniProt Q15746)", "experiment": "Inhibition of human MYLK at 1.82 nM by HotSpot assay relative to control"}, "[11]": {"target": "T3, Serine/threonine-protein kinase Nek2 (Homo sapiens) (UniProt P51955)", "T3 sequence (whole entry)": "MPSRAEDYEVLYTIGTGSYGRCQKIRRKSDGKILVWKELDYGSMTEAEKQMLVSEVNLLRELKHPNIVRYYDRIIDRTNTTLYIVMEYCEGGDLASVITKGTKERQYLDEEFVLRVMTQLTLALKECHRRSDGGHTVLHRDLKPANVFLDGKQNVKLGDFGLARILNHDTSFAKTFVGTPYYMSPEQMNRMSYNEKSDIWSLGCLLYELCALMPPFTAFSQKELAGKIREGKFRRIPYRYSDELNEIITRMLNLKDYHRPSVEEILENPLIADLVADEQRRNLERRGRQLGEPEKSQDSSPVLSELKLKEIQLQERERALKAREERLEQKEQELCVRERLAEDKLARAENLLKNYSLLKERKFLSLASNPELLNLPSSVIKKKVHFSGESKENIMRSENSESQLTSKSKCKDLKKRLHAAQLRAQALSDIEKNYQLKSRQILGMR", "experiment": "Inhibition of human NEK2 at 1.82 nM by HotSpot assay relative to control"}, "[12]": {"target": "Casein kinase II subunit alpha' (Homo sapiens) (UniProt P19784)", "sequence (P19784 whole entry, looked up)": "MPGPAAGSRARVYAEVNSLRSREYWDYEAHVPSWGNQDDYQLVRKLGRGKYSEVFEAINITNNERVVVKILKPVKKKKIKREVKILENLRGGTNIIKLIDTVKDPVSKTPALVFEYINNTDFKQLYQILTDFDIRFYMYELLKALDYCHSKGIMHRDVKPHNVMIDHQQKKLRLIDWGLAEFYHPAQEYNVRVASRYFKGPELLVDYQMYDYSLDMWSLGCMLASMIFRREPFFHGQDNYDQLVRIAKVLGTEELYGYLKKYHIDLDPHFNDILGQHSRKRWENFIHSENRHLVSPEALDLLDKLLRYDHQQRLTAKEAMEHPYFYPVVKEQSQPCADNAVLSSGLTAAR", "experiment": "Inhibition of human CK2a2 at 1.82 nM by HotSpot assay relative to control"}, "[13]": {"target": "TGF-beta receptor type-2 (Homo sapiens) (UniProt P37173)", "experiment": "Inhibition of human TGFBR2 at 1.82 nM by HotSpot assay relative to control"}, "[14]": {"target": "Cyclin-dependent kinase 4/cyclin D1 (Homo sapiens) (UniProt P11802+P24385)", "experiment": "Inhibition of human CDK4/cyclin D1 at 1.82 nM by HotSpot assay relative to control", "format": "protein-complex assay"}}}
{"smiles": "C[C@]1(O)C[C@@H](c2nc(-c3ccc4ccc(-c5ccccc5)nc4c3)c3c(N)nccn32)C1", "values": [{"measurement": "inhibition", "setting": "[1]", "value": 100, "unit": "%"}, {"measurement": "inhibition", "setting": "[2]", "value": -9.59, "unit": "%"}, {"measurement": "inhibition", "setting": "[3]", "value": -1.52, "unit": "%"}, {"measurement": "inhibition", "setting": "[4]", "value": -4.07, "unit": "%"}, {"measurement": "inhibition", "setting": "[5]", "value": 0.62, "unit": "%"}, {"measurement": "inhibition", "setting": "[6]", "value": -1.35, "unit": "%"}]}
{"smiles": "Nc1n[nH]c2nnc(-c3c(-c4ccccc4)nn4ccccc34)cc12", "values": [{"measurement": "inhibition", "setting": "[7]", "value": 8.35, "unit": "%"}]}
{"smiles": "C[C@@]1(C(=O)Nc2ccc(F)nc2)CCCN1c1nc(Nc2cc(C3CC3)n[nH]2)c2cccn2n1", "values": [{"measurement": "inhibition", "setting": "[8]", "value": 2.09, "unit": "%"}, {"measurement": "inhibition", "setting": "[9]", "value": 3.55, "unit": "%"}, {"measurement": "inhibition", "setting": "[10]", "value": 2.24, "unit": "%"}, {"measurement": "inhibition", "setting": "[11]", "value": 0.74, "unit": "%"}, {"measurement": "inhibition", "setting": "[12]", "value": 11.7, "unit": "%"}, {"measurement": "inhibition", "setting": "[13]", "value": 5.94, "unit": "%"}, {"measurement": "inhibition", "setting": "[14]", "value": -5.89, "unit": "%"}]}
